This is an account of results in patent US9822108B2, “Antimicrobial agents” (RUTGERS, THE STATE UNIVERSITY OF NEW JERSEY, priority 2012, dated 2017).

In brackets after ≈: the same amount, converted by molar mass.

For assay [1], the system named is methicillin-resistant Staphylococcus aureus (MRSA). Put plainly: Antibacterial assay (Test C, broth microdilution MIC) against MRSA. The format is cell-based. Particulars: minimal inhibitory concentration, 37° C., growth read after 24 to 48 hours at OD 600 nm, read-out: MRSA (MIC ug/ml). Here is the method:
(§1) Test C. Antibacterial Assay.
(§2) Antibacterial activity can be determined as per Clinical and Laboratory Standards Institute (CLSI) guidelines using a broth microdilution assay in which log-phase bacteria are grown at 37° C. in appropriate medium containing two-fold serial dilutions of a compound to yield final concentrations ranging from 256 to 0.06 μg/mL. For determination of minimal inhibitory concentration (MIC) values, bacterial growth is monitored after 24 to 48 hours by measuring optical density at 600 nm.
(§3) Using a procedure similar to Test C, representative compounds of the invention were tested against methicillin-susceptible Staphylococcus aureus (MSSA) and methicillin-resistant Staphylococcus aureus (MRSA).

Assay [2] concerns methicillin-susceptible Staphylococcus aureus (MSSA). The assay is described as follows: Antibacterial assay (Test C, broth microdilution MIC) against MSSA. Particulars: minimal inhibitory concentration, 37° C., growth read after 24 to 48 hours at OD 600 nm, read-out: MSSA (MIC ug/ml). The format is cell-based. As for the experimental part:
as §1, §2, §3
In general terms: Dilution methods test growth across graded concentrations, often in twofold steps.

With `C[n+]1cc(-c2ccccc2)nc2ccccc21` [Example 1], the MIC was 8 µg/mL in assay [1] and 2 µg/mL in assay [2]. The like results for `C[n+]1cc(-c2cccc(F)c2)nc2ccccc21` [Example 2] were, in that order, 4 µg/mL and 2 µg/mL.

Consider `C[n+]1cc(-c2cccc(-c3ccccc3)c2)nc2ccccc21` [Example 3], for which the MIC in assay [1] and in assay [2] was 0.25 µg/mL each time. On to `C[n+]1cc(-c2cccc(C(C)(C)C)c2)nc2ccccc21` [Example 4], for which the MIC was 1 µg/mL in assay [1] and 0.5 µg/mL in assay [2]. For the molecule `C[n+]1cc(-c2ccc(C(C)(C)C)cc2)nc2ccccc21` [Example 5], the MIC worked out at 1 µg/mL in assay [1] and 0.5 µg/mL in assay [2]. The like results for `COC(=O)c1cc(-c2ccc(C(C)(C)C)cc2)cc(-c2c[n+](C)c3ccccc3n2)c1` [Example 6] were, in that order, 1 µg/mL and 0.5 µg/mL. Regarding `C[n+]1cc(-c2cc(C(N)=O)cc(-c3ccc(C(C)(C)C)cc3)c2)nc2ccccc21` [Example 7], the MIC in assay [1] and in assay [2] was 2 µg/mL in each case. On to `C[n+]1cc(-c2cc(C(=O)NCCO)cc(-c3ccc(C(C)(C)C)cc3)c2)nc2ccccc21` [Example 8], for which the MIC in assay [1] and in assay [2] was 4 µg/mL each time. Turning to `CC(C)(C)c1ccc(-c2cc(C(=O)NCCN)cc(-c3cnc4ccccc4n3)c2)cc1` [Example 9], the MIC in assay [1] and in assay [2] was 4 µg/mL (≈ 9.42 µM) in each case. For `CC(C)(C)c1ccc(-c2cnc3c(CNC(=N)N)cccc3n2)cc1` [Example 10], the MIC in assay [1] and in assay [2] was 2 µg/mL (≈ 6 µM) throughout. For the molecule `CC(C)(C)c1cccc(-c2cnc3c(CNC(=N)N)cccc3n2)c1` [Example 11], the values for the MIC in assay [1] and in assay [2] were 2 µg/mL (≈ 6 µM) and 1 µg/mL (≈ 3 µM), respectively. The like results for `CC(C)(C)c1ccc(-c2ncnc3c(CNC(=N)N)cccc23)cc1` [Example 12] were, in that order, 4 µg/mL (≈ 12 µM) and 2 µg/mL (≈ 6 µM).

With `CC(=N)NCc1cccc2c(-c3ccc(C(C)(C)C)cc3)ncnc12` [Example 13], the MIC in assay [1] turned out to be 64 µg/mL (≈ 193 µM); in assay [2], 32 µg/mL (≈ 96.3 µM). Turning to `CC(C)(C)c1ccc(-c2ncnc3c(CN)cccc23)cc1` [Example 14], the MIC in assay [1] is 64 µg/mL (≈ 220 µM); in assay [2], 32 µg/mL (≈ 110 µM). The like results for `Cc1cccc(-c2nc3ccccc3nc2NCCN)c1` [Example 15] were, in that order, greater than 64 µg/mL and greater than 64 µg/mL. Regarding `CC(C)(C)c1ccc(-c2cccc3c(CNC(=N)N)ncnc23)cc1` [Example 16], the MIC in assay [1] amounted to 64 µg/mL (≈ 192 µM); in assay [2], 8 µg/mL (≈ 24 µM).

As to `CC(C)(C)c1ccc(-c2ccnc3c(CNC(=N)N)ccnc23)cc1` [Example 17], the MIC amounted to 8 µg/mL (≈ 24 µM) in assay [1] and 4 µg/mL (≈ 12 µM) in assay [2].

For `CC(C)(C)c1ccc(-c2ccnc3c(CN)ccnc23)cc1` [Example 18], the MIC in assay [1] and in assay [2] was greater than 64 µg/mL each time. Take `CC(C)(C)c1ccc(-c2nnc(CNC(=N)N)c3ccccc23)cc1` [Example 19]: the MIC in assay [2] was determined as 16 µg/mL (≈ 48 µM). Take `CC(C)(C)c1cccc(-c2nc(CNC(=N)N)c3ccccc3n2)c1` [Example 20]: in assay [2], the MIC worked out at 4 µg/mL (≈ 12 µM). As for `CC(C)(C)c1cccc(-c2cnc3cccc(CNC(=N)N)c3n2)c1` [Example 21], the MIC in assay [1] and in assay [2] was 2 µg/mL (≈ 6 µM) each time.

`CC(C)(C)c1cccc(-c2cnc3cc(CNC(=N)N)ccc3n2)c1` [Example 22]: the results for the MIC in assay [1] and in assay [2] were 8 µg/mL (≈ 24 µM) and 4 µg/mL (≈ 12 µM), respectively.
